# In patent US20160150782A1, “USE OF SELECTED PYRIDONE CARBOXAMIDES OR SALTS THEREOF AS ACTIVE SUBSTANCES AGAINST ABIOTIC PLANT STRESS” (BAYER CROPSCIENCE AKTIENGESELLSCHAFT, priority 2013, published 2016):
# Tested on: Brassica napus
# Test: Drought stress test on sprayed greenhouse plants, visual damage scoring (Table 3)
# Assay type: in vivo
# Parameters: key: reduction in damage intensity, damage assessed in %
# Conditions: efficacy = reduction in damage intensity, dosage 25 g/ha, spray WP, 600 l/ha water
# Protocol: (§1) Seeds of monocotyledonous and dicotyledonous crop plants are sown in sandy loam in plastic or wood-fiber pots, covered with soil or sand and cultivated in a greenhouse under good growth conditions. The test plants are treated at the early leaf stage (BBCH10-BBCH13). To assure uniform water supply before commencement of stress, the potted plants are supplied with water by dam irrigation prior to substance application. The inventive compounds, formulated in the form of wettable powders (WP), are sprayed onto the green parts of the plants as an aqueous suspension at an equivalent water application rate of 600 I/ha with addition of 0.2% wetting agent (e.g. agrotin). Substance application is followed immediately by stress treatment of the plants. For this purpose, the wood-fiber pots are transferred in plastic inserts in order to prevent them from subsequently drying out too quickly. Drought stress is induced by gradual drying out under the following conditions: “Day”: 14 hours with illumination at 26-30° C. “Night”: 10 hours without illumination at 18-20° C. The duration of the respective stress phases is guided mainly by the condition of the stressed control plants. […] The end of the stress phase is followed by an approx. 4-14-day recovery phase, during which the plants are once again kept under good growth conditions in a greenhouse. The duration of the recovery phase is guided mainly by when the trial plants have attained a state which enables visual scoring of potential effects, and is therefore variable. […] The damage intensity is at first assessed in percent.
row,Compound,E (BRSNS)
1,CCOC(=O)C1CCCCN1C(=O)c1cc(C)c(C(F)(F)F)[nH]c1=O (centres unmarked) [compound 204],>5
2,Cc1cc(C(=O)NC2CC2)c(=O)[nH]c1C(F)(F)C(F)(F)F [compound 225],>5
3,Cc1cc(C(=O)NCC2CC2)c(=O)[nH]c1C(F)(F)C(F)(F)F [compound 233],>5
4,C=C(C)CNC(=O)c1cc(C)c(C(F)(F)C(F)(F)F)[nH]c1=O [compound 247],>5
5,Cc1cc(C(=O)NC(C)CC(C)C)c(=O)[nH]c1C(F)(F)C(F)(F)F (centres unmarked) [compound 256],>5
6,Cc1cc(C(=O)NC(C)C(C)C)c(=O)[nH]c1C(F)(F)C(F)(F)F (centres unmarked) [compound 258],>5
7,COCCNC(=O)c1cc(C)c(C(F)(F)C(F)(F)F)[nH]c1=O [compound 266],>5
8,CCc1cc(C(=O)NCC(OC)OC)c(=O)[nH]c1C(F)(F)Cl [compound 813],>5
9,CCc1cc(C(=O)NC(C)CN(C)C)c(=O)[nH]c1C(F)(F)C(F)(F)Cl (centres unmarked) [compound 933],>5
10,"CCOC(=O)C1CCCCN1C(=O)c1cc(Cl)c(C(F)(F)Cl)[nH]c1=O (centres unmarked) [compound 1744, 1-({5′-chloro-6′-[chloro(difluoro)methyl]-2′-oxo-1′,2′-dihydropyridin-3′-yl}carbonyl)-piperidine-2-carboxylic acid ethyl ester]",>5
11,CC(C)CC(C)NC(=O)c1cc(Br)c(C(F)(Cl)C(F)(F)F)[nH]c1=O (centres unmarked) [compound 2016],>5
12,CCC(CC)NC(=O)c1cc(Br)c(C(F)(Cl)C(F)(F)F)[nH]c1=O (centres unmarked) [compound 2020],>5
13,CNC(=O)c1cc(I)c(C(F)(F)F)[nH]c1=O [compound 2220],>5
14,COCCCNC(=O)c1cc(I)c(C(F)C(F)(F)F)[nH]c1=O (centres unmarked) [compound 2233],>5
15,Cc1cc(C(=O)NC(C)CC(C)C)c(=O)[nH]c1C(F)(Cl)C(F)(F)F (centres unmarked) [compound 2246],>5

# Same assay, conditions: efficacy = reduction in damage intensity, dosage 50 g/ha, spray WP, 600 l/ha water
row,Compound,E (BRSNS)
1,C=CCNC(=O)c1cc(Br)c(C(F)(F)F)[nH]c1=O [compound 1785],>5

# Same assay, conditions: efficacy = reduction in damage intensity, dosage 250 g/ha, spray WP, 600 l/ha water
row,Compound,E (BRSNS)
1,Cc1cc(C(=O)NCC2CC2)c(=O)[nH]c1C [compound 13],>5
2,CCC(C)NC(=O)c1cc(C)c(C)[nH]c1=O (centres unmarked) [compound 29],>5
3,"CCCC(C)NC(=O)c1cc(C)c(C)[nH]c1=O (centres unmarked) [compound 32, 5,6-Dimethyl-2-oxo-N-(pentan-2-yl)-1,2-dihydropyridine3-carboxamide]",>5
4,COCCNC(=O)c1cc(C)c(C)[nH]c1=O [compound 46],>5
5,"CCc1cc(C(=O)NC2CC2)c(=O)[nH]c1C(F)(F)C(F)(F)F [compound 665, N-Cyclopropyl-5-ethyl-2-oxo-6-(pentafluoroethyl)-1,2-dihydropyridine-3-carboxamide]",>5
6,CCCc1cc(C(=O)NCCCOC)c(=O)[nH]c1C(F)(F)C(F)(F)F [compound 1154],>5
7,C=CCNC(=O)c1cc(Cl)c(C(F)(F)C(F)(F)Cl)[nH]c1=O [compound 1565],>5
8,CC(C)C(C)NC(=O)c1cc(Cl)c(C(F)(F)Cl)[nH]c1=O (centres unmarked) [compound 1688],>5
9,Cc1cc(C(=O)NC(C)C(F)(F)F)c(=O)[nH]c1C(F)(F)C(F)(F)C(F)(F)F (centres unmarked) [compound 2251],>5

# Tested on: Zea mays (corn)
# Test: Drought stress test on sprayed greenhouse plants, visual damage scoring (Table 2)
# Assay type: in vivo
# Parameters: key: reduction in damage intensity, damage assessed in %
# Conditions: efficacy = reduction in damage intensity, dosage 2.5 g/ha, spray WP, 600 l/ha water
# Protocol: as §1
row,Compound,E (ZEAMX)
1,COCCNC(=O)c1cc(Br)c(C)[nH]c1=O [compound 2423],>5

# Same assay, conditions: efficacy = reduction in damage intensity, dosage 25 g/ha, spray WP, 600 l/ha water
row,Compound,E (ZEAMX)
1,COCCNC(=O)c1cc(C)c(C)[nH]c1=O [compound 46],>5
2,COC(=O)CNC(=O)c1cc(C)c(C)[nH]c1=O [compound 59],>5
3,CCCNC(=O)c1cc(C)c(C(F)(F)C(F)(F)F)[nH]c1=O [compound 223],>5
4,COCCNC(=O)c1cc(C)c(C(F)(F)C(F)(F)F)[nH]c1=O [compound 266],>5
5,CCc1cc(C(=O)NCC(=O)OC)c(=O)[nH]c1C(F)(F)F [compound 610],>5
6,CCc1cc(C(=O)NC(C)C)c(=O)[nH]c1C(F)(F)C(F)(F)F [compound 664],>5
7,CCc1cc(C(=O)NC(C)CC(C)C)c(=O)[nH]c1C(F)(F)C(F)(F)F (centres unmarked) [compound 696],>5
8,CCc1cc(C(=O)NC2CCC2)c(=O)[nH]c1C(F)(F)Cl [compound 777],>5
9,CCNC(=O)c1cc(Cl)c(C(F)(F)F)[nH]c1=O [compound 1212],>5
10,CCCNC(=O)c1cc(Cl)c(C)[nH]c1=O [compound 2270],>5
11,CCc1[nH]c(=O)c(C(=O)N(C)CC(=O)OC)cc1C [compound 2817],>5
12,CCCNC(=O)c1cc(I)c(CCC)[nH]c1=O [compound 3920],>5
13,CCCc1[nH]c(=O)c(C(=O)NCCC(C)C)cc1I [compound 3940],>5

# Same assay, conditions: efficacy = reduction in damage intensity, dosage 250 g/ha, spray WP, 600 l/ha water
row,Compound,E (ZEAMX)
1,CCCNC(=O)c1cc(C)c(C)[nH]c1=O [compound 3],>5
2,Cc1cc(C(=O)NC(C)CC(C)C)c(=O)[nH]c1C (centres unmarked) [compound 36],>5
3,Cc1cc(C(=O)NCC(=O)O)c(=O)[nH]c1C(F)(F)F [compound 170],>5
4,"Cc1cc(C(=O)N(C)c2ccccc2)c(=O)[nH]c1C(F)(F)F [compound 219, N,5-Dimethyl-2-oxo-N-phenyl-6-(trifluoromethyl)-1,2-dihydropyridine-3-carboxamide]",>5
5,CNC(=O)c1cc(C)c(C(F)(F)C(F)(F)F)[nH]c1=O [compound 221],>5
6,CCNC(=O)c1cc(C)c(C(F)(F)C(F)(F)F)[nH]c1=O [compound 222],>5
7,CCCc1cc(C(=O)NCC(=O)OC)c(=O)[nH]c1C(F)(F)C(F)(F)F [compound 1159],>5
8,CC(C)C(C)NC(=O)c1cc(Cl)c(C(F)(F)C(F)(F)Cl)[nH]c1=O (centres unmarked) [compound 1578],>5
9,CN(C)C(=O)c1cc(Br)c(C(F)(Cl)C(F)(F)F)[nH]c1=O (centres unmarked) [compound 2085],>5
10,Cc1[nH]c(=O)c(C(=O)NCCC(C)C)cc1Cl [compound 2290],>5

# Tested on: Triticum aestivum
# Test: Drought stress test on sprayed greenhouse plants, visual damage scoring (Table 4)
# Assay type: in vivo
# Conditions: efficacy = reduction in damage intensity, dosage 25 g/ha, spray WP, 600 l/ha water
# Protocol: as §1
row,Compound,E (TRZAS)
1,COCCNC(=O)c1cc(C)c(C(F)(F)C(F)(F)F)[nH]c1=O [compound 266],>5
2,COCC(C)NC(=O)c1cc(C)c(C(F)(F)C(F)(F)F)[nH]c1=O (centres unmarked) [compound 272],>5
3,CCc1cc(C(=O)N(C)CC(=O)OC)c(=O)[nH]c1C(F)(F)C(F)(F)F [compound 770],>5
4,CCNC(=O)c1cc(Cl)c(CC)[nH]c1=O [compound 3149],>5
5,CCc1[nH]c(=O)c(C(=O)NCCC(C)C)cc1Cl [compound 3170],>5
6,CCCc1[nH]c(=O)c(C(=O)NC(C)COC)cc1CC (centres unmarked) [compound 3639],>5
7,CCCc1[nH]c(=O)c(C(=O)NCC)cc1Cl [compound 3699],>5
8,CCCc1[nH]c(=O)c(C(=O)N(C)CC(=O)OC)cc1Br [compound 3807],>5
9,CCCc1[nH]c(=O)c(C(=O)N(C)CC(=O)OC)cc1I [compound 3917],>5
10,CCCNC(=O)c1cc(I)c(CCC)[nH]c1=O [compound 3920],>5
11,CCCc1[nH]c(=O)c(C(=O)NCCC(C)C)cc1I [compound 3940],>5

# Same assay, conditions: efficacy = reduction in damage intensity, dosage 250 g/ha, spray WP, 600 l/ha water
row,Compound,E (TRZAS)
1,Cc1cc(C(=O)NCCC(C)C)c(=O)[nH]c1C(F)(F)C(F)(F)F [compound 243],>5
2,COCCCNC(=O)c1cc(C)c(C(F)(F)C(F)(F)F)[nH]c1=O [compound 274],>5
3,CCc1cc(C(=O)NC(C)CN(C)C)c(=O)[nH]c1C(F)(F)C(F)(F)Cl (centres unmarked) [compound 933],>5
4,CCc1[nH]c(=O)c(C(=O)NCCC(C)C)cc1C [compound 2840],>5
5,COC(=O)CN(C)C(=O)c1cc(C)c(C)[nH]c1=O [compound 4027],>5
